From patent US20030004172A1, “Fused pyrimidinone matrix metalloproteinase inhibitors” (priority 2001, published 2003)

Target: MMP-13CD (catalytic domain of collagenase-3) (Homo sapiens, UniProt P45452)
Test: Thiopeptolide substrate hydrolysis inhibition assay, MMP-13CD
Assay type: biochemical
Conditions: Table I; thiopeptolide substrate, HEPES pH 7.0, 22° C.; read-out: MMP-13CD IC50
From the text: Thiopeptolide substrates show virtually no decomposition or hydrolysis at or below neutral pH in the absence of a matrix metalloproteinase enzyme.

| Compound | IC50 [nM] |
| --- | --- |
| Cn1c(=O)n(CCc2ccccc2)c(=O)c2cc(C(=O)OCc3ccccc3)sc21 [Example 104, 1-Methyl-2,4-dioxo-3-phenethyl-1,2,3,4-tetrahydro-thieno[2,3-d]pyrimidine-6-carboxylic acid benzyl ester] | 1100 |
| Cn1c(=O)n(Cc2nc(N)nc(Nc3ccccc3)n2)c(=O)c2cc(C(=O)OCc3ccccc3)sc21 [Example 105, 3(4-Amino-6-phenylamino-1,3,5-triazin-2-ylmethyl)-1-methyl-2,4-dioxo-1,2,4-tetrahydro-thieno[2,3-d]pyrimidine-6-carboxylic acid benzyl ester] | 520 |
| Cn1c(=O)n(Cc2ccc(C(F)(F)F)cc2)c(=O)c2cc(C(=O)OCc3ccccc3)sc21 [Example 106, 1-Methyl-2,4-dioxo-3-(4-trifluoromethyl-benzyl)-1,2,3,4-tetrahydro-thieno[2,3-d]pyrimidine-6-carboxylic acid benzyl ester] | 590 |
| Cn1c(=O)n(CCCCCCC#N)c(=O)c2cc(C(=O)OCc3ccccc3)sc21 [Example 107, 3-(6-Cyano-hexyl)-1-methyl-2,4-dioxo-1,2,3,4-tetrahydro-thieno[2,3-d]pyrimidine-6-carboxylic acid benzyl ester] | 2400 |
| COc1ccc(OC)c(C(=O)Cn2c(=O)c3cc(C(=O)OCc4ccccc4)sc3n(C)c2=O)c1 [Example 108, 3-[2-(2,5-Dimethoxy-phenyl)-2-oxo-ethyl]-1-methyl-2,4-dioxo-1,2,3,4-tetrahydro-thieno[2,3-d]pyrimidine-6-carboxylic acid benzyl ester] | 1700 |
| Cn1c(=O)n(Cc2cccc(I)c2)c(=O)c2cc(C(=O)OCc3ccccc3)sc21 [Example 109, 3-(3-Iodo-benzyl)-1-methyl-2,4-dioxo-1,2,3,4-tetrahydro-thieno[2,3-d]pyrimidine-6-carboxylic acid benzyl ester] | 940 |
| Cn1c(=O)n(Cc2cccc(C(F)(F)F)c2)c(=O)c2cc(C(=O)OCc3ccccc3)sc21 [Example 110, 1-Methyl-2,4-dioxo-3-(3-trifluoromethyl-benzyl)-1,2,3,4-tetrahydro-thieno[2,3-d]pyrimidine-6-carboxylic acid benzyl ester] | 420 |
| Cn1c(=O)n(Cc2ccc(C(F)(F)F)cc2C(F)(F)F)c(=O)c2cc(C(=O)OCc3ccccc3)sc21 [Example 111, 3-(2,4-Bis-trifluoromethyl-benzyl)-1-methyl-2,4-dioxo-1.2.3.4-tetrahydro-thieno[2,3-d]pyrimidine-6-carboxylic acid benzyl ester] | 3200 |
| Cn1c(=O)n(CCN2C(=O)c3ccccc3C2=O)c(=O)c2cc(C(=O)OCc3ccccc3)sc21 [Example 112, 3-[2-(1,3-Dioxo-1,3-dihydro-isoindol-2-yl)-ethyl]-1-methyl-2,4-dioxo-1,2,3,4-tetrahydro-thieno[2,3-d]pyrimidine-6-carboxylic acid benzyl ester] | 2900 |
| Cn1c(=O)n(CCN2C(=O)c3ccccc3C2=O)c(=O)c2cc(C(=O)OCc3ccccc3)sc21 [Example 113, 3-[2-(1,3-Dioxo-1,3-dihydro-isoindol-2-yl)-ethyl]-1-methyl-2,4-dioxo-1,2,3,4-tetrahydro-thieno[2,3-d]pyrimidine-6-carboxylic acid benzyl ester] | 2900 |
| C=C(Cn1c(=O)c2cc(C(=O)OCc3ccccc3)sc2n(C)c1=O)C(=O)O [Example 114] | 330 |
| C=C(Cn1c(=O)c2cc(C(=O)OCc3ccccc3)sc2n(C)c1=O)C(=O)O [Example 115, 3-(2-Carboxy-allyl)-1-methyl-2,4-dioxo-1,2,3,4-tetrahydro-thieno[2,3-d]pyrimidine-6-carboxylic acid benzyl ester] | 330 |
| Cn1c(=O)n(CCCN)c(=O)c2cc(C(=O)OCc3ccccc3)sc21 [Example 116, 3-(3-Amino-propyl)-1-methyl-2,4-dioxo-1,2,3,4-tetrahydro-thieno[2,3-d]pyrimidine-6-carboxylic acid benzyl ester] | 13000 |
| Cn1c(=O)n(CC2CO2)c(=O)c2cc(C(=O)OCc3ccccc3)sc21 (stereo not drawn) [Example 119, 1-Methyl-3-oxiranylmethyl-2,4-dioxo-1,2,3,4-tetrahydro-thieno[2,3-d]pyrimidine-6-carboxylic acid benzyl ester] | 510 |
| Cn1c(=O)n(CCCCOc2ccccc2)c(=O)c2cc(C(=O)OCc3ccccc3)sc21 [Example 121, 1-Methyl-2,4-dioxo-3-(4-phenoxy-butyl)-1,2,3,4-tetrahydro-thieno[2,3-d]pyrimidine-6-carboxylic acid benzyl ester] | 250 |
| Cn1c(=O)n(Cc2ccccc2C#N)c(=O)c2cc(C(=O)OCc3ccccc3)sc21 [Example 122, 3-(2-Cyano-benzyl)-1-methyl-2,4-dioxo-1,2,3,4-tetrahydro-thieno[2,3-d]pyrimidine-6-carboxylic acid benzyl ester] | 4500 |
| Cn1c(=O)n(CCCOc2ccccc2)c(=O)c2cc(C(=O)OCc3ccccc3)sc21 [Example 123, 1-Methyl-2,4-dioxo-3-(3-phenoxy-propyl)-1,2,3,4-tetrahydro-thieno[2,3-d]pyrimidine-6-carboxylic acid benzyl ester] | 7800 |
| Cn1c(=O)n(CC(O)COc2cccc3ccccc23)c(=O)c2cc(C(=O)OCc3ccccc3)sc21 (stereo not drawn) [Example 126, 3-[2-Hydroxy-3-(naphthalen-1-yloxy)-propyl]-1-methyl-2,4-dioxo-1,2,3,4-tetrahydro-thieno[2,3-d]pyrimidine-6-carboxylic acid benzyl ester] | 13000 |
| Cn1c(=O)c2cc(C(=O)OCc3ccccc3)sc2n(C)c1=O [Example 127, 1,3-Dimethyl-2,4-dioxo-1,2,3,4-tetrahydro-thieno[2,3-d]pyrimidine-6-carboxylic acid benzyl ester] | 3900 |
| CC(CO)Cn1c(=O)c2cc(C(=O)OCc3ccccc3)sc2n(C)c1=O (stereo not drawn) [Example 134, 3-(3-Hydroxy-2-methyl-propyl)-1-methyl-2,4-dioxo-1,2,3,4-tetrahydro-thieno[2,3-d]pyrimidine-6-carboxylic acid benzyl ester] | 1500 |
| Cn1c(=O)n(Cc2ccc(Cl)nc2)c(=O)c2cc(C(=O)OCc3ccccc3)sc21 [Example 136, 3-(6-Chloro-pyridin-3-ylmethyl)-1-methyl-2,4-dioxo-1,2,3,4tetrahydro-thieno[2,3-d]pyrimidine-6-carboxylic acid benzyl ester] | 51 |

Next, values leading:

| IC50 [nM] | Compound |
| --- | --- |
| 30 | Cc1ccc(Cn2c(=O)c3cc(C(=O)OCc4ccccc4)sc3n(C)c2=O)cc1 [Example 103, 1-Methyl-3-(4-methyl-benzyl)-2,4-dioxo-1,2,3,4-tetrahydro-thieno[2,3-d]pyrimidine-6-carboxylic acid benzyl ester] |
| 36 | Cn1c(=O)n(CN2C(=O)c3ccccc3C2=O)c(=O)c2cc(C(=O)OCc3ccccc3)sc21 [Example 117, 3-(1,3-Dioxo-1,3-dihydro-isoindol-2-ylmethyl)-1-methyl-2,4-dioxo-1,2,3,4-tetrahydro-thieno[2,3-d]pyrimidine-6-carboxylic acid benzyl ester] |
| 15 | Cn1c(=O)n(Cc2ccc(F)cc2)c(=O)c2cc(C(=O)OCc3ccccc3)sc21 [Example 118, 3-(4-Fluoro-benzyl)-1-methyl-2,4-dioxo-1,2,3,4-tetrahydro-thieno[2,3-d]pyrimidine-6-carboxylic acid benzyl ester] |
| 130 | CCC(C)Cn1c(=O)c2cc(C(=O)OCc3ccccc3)sc2n(C)c1=O (stereo not drawn) [Example 120, 1-Methyl-3-(2-methyl-butyl)-2,4-dioxo-1,2,3,4-tetrahydro-thieno[2,3-d]pyrimidine-6-carboxylic acid benzyl ester] |
| 110 | C=CCCCCn1c(=O)c2cc(C(=O)OCc3ccccc3)sc2n(C)c1=O [Example 124, 3-Hex-5-enyl-1-methyl-2,4-dioxo-1,2,3,4-tetrahydro-thieno[2,3-d]pyrimidine-6-carboxylic acid benzyl ester] |
| 90 | Cn1c(=O)n(Cc2cccnc2)c(=O)c2cc(C(=O)OCc3ccccc3)sc21 [Example 125, 1-Methyl-2,4-dioxo-3-pyridin-3-ylmethyl-1,2,3,4-tetrahydro-thieno[2,3-d]pyrimidine-6-carboxylic acid benzyl ester] |
| 160 | C=CCn1c(=O)c2cc(C(=O)OCc3ccccc3)sc2n(C)c1=O [Example 129, 3-Allyl-1-methyl-2,4-dioxo-1,2,3,4-tetrahydro-thieno[2,3-d]pyrimidine-6-carboxylic acid benzyl ester] |
| 97 | C#CCn1c(=O)c2cc(C(=O)OCc3ccccc3)sc2n(C)c1=O [Example 130, 1-Methyl-2,4-dioxo-3-prop-2-ynyl-1,2,3,4-tetrahydro-thieno[2,3-d]pyrimidine-6-carboxylic acid benzyl ester] |
| 19 | CC#CCn1c(=O)c2cc(C(=O)OCc3ccccc3)sc2n(C)c1=O [Example 131, 3-But-2-ynyl-1-methyl-2,4-dioxo-1,2,3,4-tetrahydro-thieno[2,3-d]pyrimidine-6-carboxylic acid benzyl ester] |
| 74 | Cn1c(=O)n(CCOc2ccccc2)c(=O)c2cc(C(=O)OCc3ccccc3)sc21 [Example 132, 1-Methyl-2,4-dioxo-3-(2-phenoxy-ethyl)-1,2,3,4-tetrahydro-thieno[2,3-d]pyrimidine-6-carboxylic acid benzyl ester] |
| 74 | Cn1c(=O)n(CCOc2ccccc2)c(=O)c2cc(C(=O)OCc3ccccc3)sc21 [Example 133, 1-Methyl-2,4-dioxo-3-(2-phenoxy-ethyl)-1,2,3,4-tetrahydro-thieno[2,3-d]pyrimidine-6-carboxylic acid benzyl ester] |
| 86 | CC(C)Cn1c(=O)c2cc(C(=O)OCc3ccccc3)sc2n(C)c1=O [Example 135, 3-Isobutyl-1-methyl-2,4-dioxo-1,2,3,4-tetrahydro-thieno[2,3-d]pyrimidine-6-carboxylic acid benzyl ester] |
